The text below walks through data of patent publication US4985445A, “Cancer cell metastasis inhibitors and novel compounds” (Meiji Seika Kaisha, Ltd., priority 1988, dated 1991).

Read-outs that look alike come from different tables or passages of the source.

In series [1] the test system is B16 subline of high pulmonary metastatic potential. Put plainly: Inhibition of pulmonary metastasis of B16 subline pretreated with compound and injected i.v. into BDF1 mice. In kind it is in vivo, murine; mouse BDF1. As to conditions: for Inhibition of metastasis to the lungs (in words): B16 subline, BDF1 mice. The method, then:
Based on the method described priviously (Method in Cancer Research, 15, 399-439, 1978), a subline of high metastatic potential (high pulmonary colonization) was selected from murine melanoma B16 by repeating the i.v. transplantation of the tumor cells in BDF1 mice and the isolation of pulmonary metastatic clones.
Evaluation of the metastasis inhibiting activity was performed based on the method described previously (Proc. Natl Acad. Sci. USA, 83, 1752-1756, 1986, Cancer Research, 46, 858-862, 1986).
Firstly, the B16 subline of high metastatic potential was inoculated into Dulbecco's ME medium (DME medium) supplemented with 10% bovine fetal serum and the compound represented by general formula (I) described above was added thereto.
The B16 subline of high pulmonary metastatic potential was inoculated into DME medium supplemented with 10% bovine fetal serum and 30, 100 or 300 μg/ml of N (3-phenylpropyl)-1-deoxynojirimycin was added thereto followed by incubation at 37° C. for 3 days in the presence of 5% CO2.
Inhibition of metastasis was examined in a manner similar to Test Example 2 except that N-(3-phenyl-2-propenyl)-1-deoxy-nojirimycin and N-(3-p-chlorophenyl-3-methyl-2-propenyl)-1-deoxynojirimycin were used instead of N-(3-phenylpropyl)-1-deoxynojirimycin in Test Example 2. In this test example, however, 2.5×10^5 cells each of the B16 subline were transplanted to 3 mice for each group.
The B16 subline of high pulmonary metastatic potential was inoculated into DME medium supplemented with 10% bovine fetal serum and 30 μg/ml of N-(4-phenoxy-trans-2-butenyl)-1-deoxynojirimycin was added thereto followed by incubation at 37° C. for 3 days in the presence of 5% CO2. […] The number of colonies of the B16 subline formed on the surface of and in the lung was counted.
Inhibition of metastasis was examined in a manner similar to Test Example 5 except that N-(2-phenoxyethyl)-1-deoxynojirimycin was used instead of N-(4-phenoxy-trans-2-butenyl)-1-deoxynojirimycin in Test Example 5.
The B16 sibline of high pulmonary metastatic potential was inoculated into DME medium supplemented with 10% bovine fetal serum and 10 μg/ml of D-glucaro-δ-lactam calcium salt was added thereto followed by incubation at 37° C. for 3 days in the presence of 5% CO2. […] The number of the colonies formed on the surface of and in the lung was counted.
Inhibition of metastasis was examined in a manner similar to Test Example 8 except that D-glucaro-δ-lactam methyl ester and D-glucaro-δ-lactam ethyl ester were used instead of D-glucaro-δ-lactam calcium salt in Test Example 8.
The B16 subline of high pulmonary metastatic potential was inoculated into DME medium supplemented with 10% bovine fetal serum and 10 μg/ml of 2,6-di-O-(acetylsalicyloyl)-D-gluco-δ-lactam was added thereto followed by incubation at 37° C. for 3 days in the presence of 5% CO2.
The B16 subline of high pulmonary metastatic potential was inoculated into DME medium supplemented with 10% bovine fetal serum and 30 μg/ml of 6-O-triphenylmethyl-D-gluco-δ-lactam was added thereto followed by incubation at 37° C. for 3 days in the presence of 5% CO2.
The B16 subline of high pulmonary metastatic potential was inoculated into DME medium supplemented with 10% bovine fetal serum and 30 μg/ml of 1-deoxynojirimycin was added thereto followed by incubation at 37° C. for 3 days in the presence of 5% CO2.

Series [2] is described as follows: Acute toxicity (LD50) by mice. As to conditions: mouse, in vivo.
Series [3] deals with murine tumor cell line L 929. Nature of the series: Cytotoxic activity against L 929 (growth observed with inverted microscope, 4 days).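 As to growth: + means growth and ± means marked inhibition and - means cell death.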 It is filed as cell-based. The settings on record: for Cytotoxicity (in words): L 929, even at a concentration as high as 30 μg/ml; for Growth: 4 days. The method, then: The B16 subline of high pulmonary metastatic potential and murine tumor cell line L 929 were cultured in DME medium supplemented with 10% bovine fetal serum at 37° C. in the presence of 5% CO2.
The B16 subline of high pulmanary metastatic potential and murine tumor cell line L 929 were cultured in DME medium supplemented with 10% bovine fetal serum at 37° C. in the presence of 5% CO2.

Series [4] has as its system B16 subline of high pulmonary metastatic potential. The settings on record: 3 days. The method, then: (§1) The B16 subline of high pulmonary metastatic potential and murine tumor cell line L 929 were cultured in DME medium supplemented with 10% bovine fetal serum at 37° C. in the presence of 5% CO2. Then, cells were detached from the Petri dish with trypsin-EDTA solution. The B16 subline and L 929 were suspended in the medium described above in 1×10^4 cells/ml and 1×10^3 cells/ml, respectively. Each suspension, 150 μl, was added to 50 μl of N-(3-phenylpropyl)-1-deoxynojirimycin solution or Adriamycin (control) solution. Incubation was performed for 3 days for the B16 subline and for 4 days for L 929 strain.
as §1, with “of N-(4-phenoxy-trans-2-butenyl)-1-deoxynojirimycin” for “of N-(3-phenylpropyl)-1-deoxynojirimycin”, “days in” for “days for”, “L 929.” for “L 929 strain.”
The B16 subline of high pulmonary metastatic potential and murine tumor cell line L 929 were cultured in DME medium supplemented with 10% bovine fetal serum at 37° C. in the presence of 5% CO2. Then, cells were detached from the Petri dish with trypsin-EDTA solution. The B16 subline and L 929 were suspended in the medium described above in 1×10^4 cells/ml and 1×10^3 cells/ml, respectively. Each suspension, 150 μl, was added to 50 μl of D-glucaro-δ-lactam calcium salt solution or Adriamycin (control) solutions. Incubation was performed for 3 days in the B16 subline and for 4 days in L 929.
The B16 subline of high pulmonary metastatic potential and murine tumor cell line L 929 were cultured in DME medium supplemented with 10% bovine fetal serum at 37° C. in the presence of 5% CO2. Then, cells were detached from the Petri dish with trypsin-EDTA solution. The B16 subline and L 929 were suspended in the medium described above in 1×10^4 cells/ml and 1×10^3 cells/ml, respectively. Each suspension, 150 μl, was added to 50 μl of 2,6-di-O-(1-(p-chlorobenzoyl)-5-methoxy-2-methylindole-3-acetyl)-D-gluco-δ-lactam solution or and Adriamycin (control) solutions. Incubation was performed for 3 days in the B16 subline and for 4 days in L 929.
The B16 subline of high pulmanary metastatic potential and murine tumor cell line L 929 were cultured in DME medium supplemented with 10% bovine fetal serum at 37° C. in the presence of 5% CO2. Then, cells were detached from the Petri dish with trypsin-EDTA solution. The B16 subline and L 929 were suspended in the medium described above in 1×10^4 cells/ml and 1×10^3 cells/ml, respectively. Each suspension, 150 μl, was added to 50 μl of 6-O-triphenylmethyl-D-gluco-δ-lactam solution or Adriamycin (control) solutions. Incubation was performed for 3 days in the B16 sibline and for 4 days in L 929.
The B16 subline of high pulmonary metastatic potential was inoculated into DME medium supplemented with 10% bovine fetal serum and 30 μg/ml of 1-deoxynojirimycin was added thereto followed by incubation at 37° C. for 3 days in the presence of 5% CO2. […] Next, the cells were detached from the Petri dish with trypsin-EDTA solution. The cells were suspended in PBS- in 1×10^6 cells/ml as viable cells. This suspension, 0.1 ml, was intravenously injected in the tail vein of the mouse BDF1 (8 week age, male; 1 group, 3 mice). After feeding for 14 days, the mouse was sacrificed to excise the lungs. The number of colonies of the B16 subline on the surface of and in the lungs was counted.

For `O=C1N[C@H](COC(c2ccccc2)(c2ccccc2)c2ccccc2)[C@@H](O)[C@H](O)[C@H]1O` [6-O-Triphenylmethyl-D-gluco-δ-lactam, 6-O-triphenylmethyl-D-gluco-δ-lactam], the “Inhibition of metastasis to the lungs (in words)” value (shortened to “Inhibition of metastasis”) in series [1] was “markedly inhibited”. In series [1] (Table 14, 30 μg/ml, 3 mice, None 92 ± 21.3), the “Pulmonary Metastasis (Mean ± Standard Deviation)” value came to 17 ± 8.5 no. In addition, in series [2] (sc), the 50% lethal dose (LD50) is > 300 mg/kg. The “Cytotoxicity (in words)” value in series [3] was “did not show marked cytotoxicity”. In addition, the Growth result in series [3] (Table 13, L 929, 10 μg/ml) is listed as “+”; in series [3] (Table 13, L 929, 30 μg/ml) it was “+”; in series [4] (Table 13, B16 subline, 3 μg/ml), “+”; in series [4] (Table 13, B16 subline, 10 μg/ml), “+”; in series [4] (Table 13, B16 subline, 30 μg/ml) it was “+”.

`COC(=O)[C@H]1NC(=O)[C@H](O)[C@@H](O)[C@@H]1O` [D-Glucaro-δ-lactam methyl ester, D-glucaro-δ-lactam methyl ester]: in series [1], the “Inhibition of metastasis” value was “markedly inhibited”. Besides, the “Pulmonary Metastasis (Mean ± Standard Deviation)” value in series [1] (Table 10, 30 μg/ml, None 82 ± 11.2) was 21 ± 8.5 no. Besides, the median lethal dose (LD50) in series [2] (iv) is > 5000 mg/kg; in series [2] (po), > 10000 mg/kg.

With `OC[C@@H]1[C@@H](O)[C@H](O)[C@@H](O)CN1C/C=C/COc1ccccc1` [N-(4-phenoxy-trans-2-butenyl)-1-deoxynojirimycin], the “Inhibition of metastasis” value in series [1] was “the number of colonies on the surface of and in the lungs was decreased”. The “Pulmonary Metastasis, Mouse 1” value in series [1] (Table 6, 10 μg/ml, 14 days) is reported as 14 no. Also, the “Pulmonary Metastasis, Mouse 2” value in series [1] (Table 6, 10 μg/ml, 14 days) was found to be 48 no. For the same compound, the “Pulmonary Metastasis, Mouse 3” value in series [1] (Table 6, 10 μg/ml, 14 days) was found to be 52 no. Further, the “Pulmonary Metastasis, Mean ± Standard Derivation” value in series [1] (Table 6, 10 μg/ml, 14 days, None 135 ± 13.4) was found to be 38 ± 20.9 no. Moreover, the “Pulmonary Metastasis, %” value in series [1] (Table 6, 10 μg/ml, None = 100) was 28.1%. Also, the 50% lethal dose (LD50) in series [2] (ip) was > 500 mg/kg. Moreover, the “Cytotoxicity (in words)” value in series [3] is “did not show the marked cytotoxicity”. Also, the Growth result is given as “+” in series [3] (Table 5, L 929, 3 μg/ml); “+” in series [3] (Table 5, L 929, 30 μg/ml); “+” in series [3] (Table 5, L 929, 100 μg/ml); “+” in series [4] (Table 5, B16 subline, 3 μg/ml); “+” in series [4] (Table 5, B16 subline, 10 μg/ml); “+” in series [4] (Table 5, B16 subline, 30 μg/ml).

For `OC[C@@H]1[C@@H](O)[C@H](O)[C@@H](O)CN1CC=Cc1ccccc1` [N-(3-phenyl-2-propenyl)-1-deoxynojirimycin], in series [1], the “Inhibition of metastasis” value is recorded as “markedly inhibited”. Also, in series [1] (Table 4, 30 μg/ml, 2.5×10^5 cells, 3 mice, None 109 ± 32.0), the “Pulmonary Metastasis (Mean ± Standard Deviation)” value is 16.8 ± 12.6 no. Further, the LD50 in series [2] (ip) was > 500 mg/kg.

In general, LD50 refers to the dose expected to kill half of the subjects tested. Higher therefore signals lower toxicity.
